Assay results: ChEMBL document CHEMBL3046558, “Effects of inositol 1,2,6-triphosphate on human liver cancer SMMC-7721 cells” (2012)
Active and inactive are the calls of the source. The calls are words filed in the database; no cut-off is given here.

Experiments:
SMMC-7721 [1] = test: Antiproliferative activity against Homo sapiens (human) SMMC7721 cells at 500 ug/ml after 72 hr by MTT assay; format: functional
SMMC-7721 [2] = test: Cell cycle arrest in Homo sapiens (human) SMMC7721 cells assessed as accumulation at S phase at 100 ug/ml after 3 days using PI staining by flow cytometry (Rvb =49.5 %); format: functional
SMMC-7721 [3] = test: Antiproliferative activity against Homo sapiens (human) SMMC7721 cells at 700 ug/ml after 72 hr by MTT assay; format: functional
SMMC-7721 [4] = test: Antiproliferative activity against Homo sapiens (human) SMMC7721 cells after 1 to 3 days by MTT assay; format: functional, cell-based
SMMC-7721 [5] = test: Cell cycle arrest in Homo sapiens (human) SMMC7721 cells assessed as accumulation at G0/G1 phase at 300 ug/ml after 3 days using PI staining by flow cytometry (Rvb =39 %); format: functional
SMMC-7721 [6] = test: Inhibition of AFP expression in cytoplasm of Homo sapiens (human) SMMC7721 cells […] after 48 hr by immunohistochemistry analysis; format: functional, cell-based
SMMC-7721 [7] = test: Cell cycle arrest in Homo sapiens (human) SMMC7721 cells assessed as accumulation at G2/M phase at 100 ug/ml after 3 days using PI staining by flow cytometry (Rvb =11.5 %); format: functional
SMMC-7721 [8] = test: Cell cycle arrest in Homo sapiens (human) SMMC7721 cells assessed as accumulation at G0/G1 phase at 100 ug/ml after 3 days using PI staining by flow cytometry (Rvb =39 %); format: functional
SMMC-7721 [9] = test: Effect on morphology of Homo sapiens (human) SMMC7721 cells assessed as disruption of cell structure at 300 ug/ml after 48 hr using HE staining by optical microscopy; format: functional, cell-based
SMMC-7721 [10] = test: Antiproliferative activity against Homo sapiens (human) SMMC7721 cells at 300 ug/ml after 72 hr by MTT assay; format: functional
SMMC-7721 [11] = test: Cell cycle arrest in Homo sapiens (human) SMMC7721 cells assessed as accumulation at S phase at 300 ug/ml after 3 days using PI staining by flow cytometry (Rvb =49.5 %); format: functional
SMMC-7721 [12] = test: Inhibition of AFP expression in nucleolus of Homo sapiens (human) SMMC7721 cells […] after 48 hr by immunohistochemistry analysis; format: functional, cell-based
SMMC-7721 [13] = test: Cell cycle arrest in Homo sapiens (human) SMMC7721 cells assessed as accumulation at G0/G1 phase at 500 ug/ml after 3 days using PI staining by flow cytometry (Rvb =39 %); format: functional
SMMC-7721 [14] = test: Effect on morphology of Homo sapiens (human) SMMC7721 cells assessed as cell detachment from matrix at 300 ug/ml after 48 hr using HE staining by optical microscopy; format: functional, cell-based
SMMC-7721 [15] = test: Antiproliferative activity against Homo sapiens (human) SMMC7721 cells at 100 ug/ml after 72 hr by MTT assay; format: functional
SMMC-7721 [16] = test: Cell cycle arrest in Homo sapiens (human) SMMC7721 cells assessed as accumulation at G2/M phase at 500 ug/ml after 3 days using PI staining by flow cytometry (Rvb =11.5 %); format: functional
SMMC-7721 [17] = test: Cell cycle arrest in Homo sapiens (human) SMMC7721 cells assessed as accumulation at G2/M phase at 300 ug/ml after 3 days using PI staining by flow cytometry (Rvb =11.5 %); format: functional
SMMC-7721 [18] = test: Inhibition of PCNA expression in nucleolus of Homo sapiens (human) SMMC7721 cells […] after 48 hr by immunohistochemistry analysis; format: functional, cell-based
SMMC-7721 [19] = test: Cell cycle arrest in Homo sapiens (human) SMMC7721 cells assessed as accumulation at S phase at 500 ug/ml after 3 days using PI staining by flow cytometry (Rvb =49.5 %); format: functional
SMMC-7721 [20] = test: Antiproliferative activity against Homo sapiens (human) SMMC7721 cells at 50 to 700 ug/ml by MTT assay; format: functional, cell-based; details: TDE = time-dependent effect
SMMC-7721 [21] = test: Antiproliferative activity against Homo sapiens (human) SMMC7721 cells at 50 ug/ml after 72 hr by MTT assay; format: functional

SMILES: O=P(O)(O)O[C@@H]1[C@H](OP(=O)(O)O)[C@H](O)[C@@H](O)[C@H](O)[C@H]1OP(=O)(O)O [ATRINOSITOL]
- Activity (SMMC-7721 [1]): 67.86%
- Activity (SMMC-7721 [2]): 39%
- Activity (SMMC-7721 [3]): 79.08%
- Activity (SMMC-7721 [4]): Dose-dependent effect
- Activity (SMMC-7721 [5]): 58.9%
- inhibition (SMMC-7721 [6]): Dose-dependent effect
- Activity (SMMC-7721 [7]): 21.6%
- Activity (SMMC-7721 [8]): 39.4%
- Activity (SMMC-7721 [9]): Active
- Activity (SMMC-7721 [10]): 59.52%
- Activity (SMMC-7721 [11]): 30.5%
- inhibition (SMMC-7721 [12]): Dose-dependent effect
- Activity (SMMC-7721 [13]): 68.1%
- Activity (SMMC-7721 [14]): Active
- Activity (SMMC-7721 [15]): 50.85%
- Activity (SMMC-7721 [16]): 19.9%
- Activity (SMMC-7721 [17]): 10.6%
- inhibition (SMMC-7721 [18]): Dose-dependent effect
- Activity (SMMC-7721 [19]): 12.3%
- Activity (SMMC-7721 [20]): tde
- Activity (SMMC-7721 [21]): 34.87%
